Measurements published in patent publication US11912693B2, “Compounds for modulating S1P1 activity and methods of using the same” (TREVENA, INC., priority 2017, dated 2024).

Columns and labels:
[1] = molecular target: T1, human sphingosine-1-phosphate receptor 1 (S1P1) (Homo sapiens (Human), UniProt P21453); assay: Inhibition of cAMP production (HTRF cAMP HiRange), S1P1 CHO-K1 cells; assay type: cell-based; settings: for Emax: CHO-K1, efficacy (SPAN) normalized to fingolimod, read-out: hS1P1 cAMP SPAN
Outline: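 CHO-K1 cells stably co-expressing human S1P1 (C-terminal Prolink tag) and EA-β-arrestin2 were grown in AssayComplete Media 6 at 37° C. and 5% CO2, plated, and incubated overnight. Agonist-driven inhibition of intracellular cAMP was read by TR-FRET with the HTRF cAMP HiRange kit on a PheraStar reader. Potency is pEC50, and efficacy (SPAN) is normalized to fingolimod.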
Target sequence in this assay (P21453 whole entry, looked up): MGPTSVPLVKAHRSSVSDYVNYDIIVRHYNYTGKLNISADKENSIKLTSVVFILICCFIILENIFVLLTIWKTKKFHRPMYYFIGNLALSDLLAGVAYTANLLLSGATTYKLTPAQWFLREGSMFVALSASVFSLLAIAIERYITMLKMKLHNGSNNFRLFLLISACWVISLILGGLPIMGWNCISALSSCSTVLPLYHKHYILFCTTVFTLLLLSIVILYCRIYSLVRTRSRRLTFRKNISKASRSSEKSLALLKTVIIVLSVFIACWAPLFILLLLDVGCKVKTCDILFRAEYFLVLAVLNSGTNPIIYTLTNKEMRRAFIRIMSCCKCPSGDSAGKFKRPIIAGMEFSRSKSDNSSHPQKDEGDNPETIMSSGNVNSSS

[2] = molecular target: T1, human sphingosine-1-phosphate receptor 1 (S1P1); assay: β-Arrestin2 recruitment assay (PathHunter), S1P1 CHO-K1 cells; assay type: cell-based; settings: for Emax: CHO-K1, efficacy (SPAN) normalized to fingolimod, read-out: hS1P1 B-arrestin2 SPAN
Outline: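 Enzyme-fragment complementation read-out: agonist-driven β-arrestin2 binding to ProLink-tagged human S1P1 in stable CHO-K1 cells restores β-galactosidase, measured 1 h at room temperature after a 60 min 37° C. compound incubation. Potency as pEC50, efficacy relative to fingolimod (SPAN).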
Target sequence in this assay (P21453 whole entry, looked up): as above
Target sequence in this assay (P32121 whole entry partner, looked up): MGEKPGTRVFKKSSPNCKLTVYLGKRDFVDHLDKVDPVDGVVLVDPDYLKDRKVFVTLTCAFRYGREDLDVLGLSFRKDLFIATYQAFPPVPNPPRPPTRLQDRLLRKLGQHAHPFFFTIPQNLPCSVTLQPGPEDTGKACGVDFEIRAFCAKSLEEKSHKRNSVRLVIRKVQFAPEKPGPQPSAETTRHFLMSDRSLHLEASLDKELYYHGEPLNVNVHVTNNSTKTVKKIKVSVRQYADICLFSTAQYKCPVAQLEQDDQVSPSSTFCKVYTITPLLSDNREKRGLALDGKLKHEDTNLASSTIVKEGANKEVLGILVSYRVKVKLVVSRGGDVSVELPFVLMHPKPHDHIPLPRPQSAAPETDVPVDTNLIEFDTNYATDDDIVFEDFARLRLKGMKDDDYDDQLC

[3] = inhibition of cAMP production, S1P1 CHO-K1 cells
[4] = β-arrestin2 recruitment, S1P1 CHO-K1 cells

Structure (SMILES)	Emax [1]	hS1P1 cAMP pEC50 [1, 3]	Emax [2]	hS1P1 B-arrestin2 pEC50 [2, 4]	EC50 ([1]; inhibition of cAMP production, S1P1 CHO-K1 cells, read-out: hS1P1 cAMP pEC50 (converted))	EC50 ([2]; β-arrestin2 recruitment, S1P1 CHO-K1 cells, read-out: hS1P1 B-arrestin2 pEC50 (converted))
Cc1ccc(-c2noc(-c3ccc4c(c3)nnn4C3CC3)n2)cn1 [Compound 87, 1-cyclopropyl-5-[3-(6-methylpyridin-3-yl)-1,2,4-oxadiazol-5-yl]-1H-1,2,3-benzotriazole]	< 75%	<6.5	< 75%	<5		
CC(C)n1nnc2cc(-c3nc(Cc4ccccc4)no3)ccc21 [Compound 88, 5-(3-benzyl-1,2,4-oxadiazol-5-yl)-1-(propan-2-yl)-1H-1,2,3-benzotriazole]	< 75%	<6.5	< 75%	<5		
CC(C)n1nnc2cc(-c3noc(C4CCOCC4)n3)ccc21 [Compound 89, 5-[5-(oxan-4-yl)-1,2,4-oxadiazol-3-yl]-1-(propan-2-yl)-1H-1,2,3-benzotriazole]	< 75%	<6.5	< 75%	<5		
COc1ccc(-c2nc(-c3ccc4c(c3)nnn4C(C)C)no2)c(C)c1 [Compound 90, 3-(1-isopropyl-1H-benzo[d][1,2,3]triazol-5-yl)-5-(4-methoxy-2-methylphenyl)-1,2,4-oxadiazole]	> 75%	<6.5	> 75%	>5		
COc1ccc(-c2noc(-c3ccc4c(c3)nnn4C3CCCC3)n2)c2ccccc12 [Compound 91, 1-cyclopentyl-5-[3-(4-methoxynaphthalen-1-yl)-1,2,4-oxadiazol-5-yl]-1H-1,2,3-benzotriazole]	< 75%	<6.5	< 75%	<5		
c1ccc(Cc2noc(-c3ccc4c(c3)nnn4C3CCCC3)n2)cc1 [Compound 92, 5-(3-benzyl-1,2,4-oxadiazol-5-yl)-1-cyclopentyl-1H-1,2,3-benzotriazole]	< 75%		< 75%		> 0.316 µM	> 10 µM
Cc1ccncc1-c1noc(-c2ccc3c(c2)nnn3C2CC2)n1 [Compound 94, 1-cyclopropyl-5-[3-(4-methylpyridin-3-yl)-1,2,4-oxadiazol-5-yl]-1H-1,2,3-benzotriazole]	> 75%	<6.5	> 75%	<5		
Cc1ccccc1-c1noc(-c2ccc3c(c2)nnn3C2CCOCC2)n1 [Compound 95, 5-[3-(2-methylphenyl)-1,2,4-oxadiazol-5-yl]-1-(oxan-4-yl)-1H-1,2,3-benzotriazole]	< 75%	<6.5	< 75%	<5		
Brc1ccccc1-c1nc(-c2ccc3[nH]nnc3c2)no1 [Compound 97, 3-(1H-benzo[d][1,2,3]triazol-5-yl)-5-(2-bromophenyl)-1,2,4-oxadiazole]	< 75%	<6.5	< 75%	<5		
Brc1ccccc1-c1nc(-c2ccc3c(c2)nnn3CC2CC2)no1 [Compound 98, 5-(2-bromophenyl)-3-(1-(cyclopropylmethyl)-1H-benzo[d][1,2,3]triazol-5-yl)-1,2,4-oxadiazole]	> 75%	<6.5	> 75%	>5		
Cc1ccncc1-c1nc(-c2ccc3c(c2)nnn3C(C)C)no1 [Compound 100, 3-(1-isopropyl-1H-benzo[d][1,2,3]triazol-5-yl)-5-(4-methylpyridin-3-yl)-1,2,4-oxadiazole]	< 75%	<6.5	< 75%	<5		
Cc1ccncc1-c1noc(-c2ccc3c(c2)nnn3C(C)C)n1 [Compound 101, 5-[3-(4-methylpyridin-3-yl)-1,2,4-oxadiazol-5-yl]-1-(propan-2-yl)-1H-1,2,3-benzotriazole]	> 75%	>6.5	> 75%	>5		
O=C1CCOc2ccc(-c3nc(-c4cccnc4)no3)cc21 [Compound 102, 6-[3-(pyridin-3-yl)-1,2,4-oxadiazol-5-yl]-3,4-dihydro-2H-1-benzopyran-4-one]	< 75%	<6.5	< 75%	<5		
CCC1(CC)CC(=O)c2cc(-c3nnc(-c4cccnc4)s3)ccc2O1 [Compound 104, 2,2-diethyl-6-(5-(pyridin-3-yl)-1,3,4-thiadiazol-2-yl)chroman-4-one]	> 75%	>6.5	> 75%	<5		
CCC1(CC)CC(=O)c2cc(-c3nc(-c4ccc(O)nc4)no3)ccc2O1 [Compound 105, 2,2-diethyl-6-[3-(6-hydroxy-3-pyridyl)-1,2,4-oxadiazol-5-yl]chroman-4-one]	< 75%	<6.5	< 75%	<5		
COc1cccc(-c2cnc(-c3ccc4c(c3)nnn4C(C)C)s2)c1 [Compound 108, 2-(1-isopropyl-1H-benzo[d][1,2,3]triazol-5-yl)-5-(3-methoxyphenyl)thiazole]	< 75%	>6.5	< 75%	<5		
COc1ccc(-c2cnc(-c3ccc4c(c3)nnn4C(C)C)s2)cc1 [Compound 109, 2-(1-isopropyl-1H-benzo[d][1,2,3]triazol-5-yl)-5-(4-methoxyphenyl)thiazole]	< 75%	<6.5	< 75%	>5		
CC(C)n1nnc2cc(-c3ncc(-c4cccc(F)c4)s3)ccc21 [Compound 110, 5-(3-fluorophenyl)-2-(1-isopropyl-1H-benzo[d][1,2,3]triazol-5-yl)thiazole]	< 75%	<6.5	< 75%	<5		
CCC1(CC)CC(=O)c2cc(-c3nc(-c4ccccn4)no3)ccc2O1 [Compound 111, 2,2-diethyl-6-[3-(2-pyridyl)-1,2,4-oxadiazol-5-yl]chroman-4-one]	> 75%	<6.5	> 75%	<5		
CC(C)n1nnc2cc(-c3nsc(-c4ccccc4O)n3)ccc21 [Compound 112, 2-{3-[1-(propan-2-yl)-1H-1,2,3-benzotriazol-5-yl]-1,2,4-thiadiazol-5-yl}phenol]		>6.5		>5		
c1ccc(-c2noc(-c3ccc4[nH]nnc4c3)n2)cc1 [Compound 113, 5-(3-phenyl-1,2,4-oxadiazol-5-yl)-1H-1,2,3-benzotriazole]		<6.5		<5		
FC(F)(F)c1cc(Br)ccc1-c1noc(-c2ccc3c(c2)nnn3C2CCCC2)n1 [Compound 114, 5-{3-[4-bromo-2-(trifluoromethyl)phenyl]-1,2,4-oxadiazol-5-yl}-1-cyclopentyl-1H-1,2,3-benzotriazole]	< 75%	<6.5	< 75%	<5		
Brc1ccccc1-c1nc(-c2ccc3c(c2)nnn3C2CCCCC2)no1 [Compound 115, 5-(2-bromophenyl)-3-(1-cyclohexyl-1H-benzo[d][1,2,3]triazol-5-yl)-1,2,4-oxadiazole]	> 75%	>6.5	> 75%	>5		
COc1cc(-c2nc(-c3ccc4c(c3)nnn4C(C)C)no2)ccn1 [Compound 116, 3-(1-isopropyl-1H-benzo[d][1,2,3]triazol-5-yl)-5-(2-methoxypyridin-4-yl)-1,2,4-oxadiazole]	< 75%	<6.5	< 75%	<5		
Cc1ccc(-c2noc(-c3ccc4c(c3)nnn4C3CCCCC3)n2)cc1 [Compound 117, 1-cyclohexyl-5-[3-(4-methylphenyl)-1,2,4-oxadiazol-5-yl]-1H-1,2,3-benzotriazole]	< 75%	<6.5	< 75%	<5		
FC(F)(F)c1cccc(-c2noc(-c3ccc4c(c3)nnn4C3CCCC3)n2)c1 [Compound 118, 1-cyclopentyl-5-{3-[3-(trifluoromethyl)phenyl]-1,2,4-oxadiazol-5-yl}-1H-1,2,3-benzotriazole]		<6.5		<5		
Cc1ccc(-c2nc(-c3ccc4c(c3)nnn4C(C)C)no2)cn1 [Compound 119, 3-(1-isopropyl-1H-benzo[d][1,2,3]triazol-5-yl)-5-(6-methylpyridin-3-yl)-1,2,4-oxadiazole]	< 75%	<6.5	< 75%	<5		
COc1ccccc1-c1nc(-c2ccc3c(c2)nnn3C2CCCC2)no1 [Compound 120, 3-(1-cyclopentyl-1H-benzo[d][1,2,3]triazol-5-yl)-5-(2-methoxyphenyl)-1,2,4-oxadiazole]	> 75%	>6.5	> 75%	>5		
CC(C)Oc1ccc(-c2nc(-c3ccc4c(c3)nnn4C3CCCC3)no2)cc1 [Compound 121, 3-(1-cyclopentyl-1H-benzo[d][1,2,3]triazol-5-yl)-5-(4-isopropoxyphenyl)-1,2,4-oxadiazole]	< 75%	<6.5	< 75%	<5		
